According to BindingDB's records for doi:10.1021/jm00378a002 (1985):

Biological target: uridine-cytidine kinase (Mus musculus)
Assay: Binding affinity to uridine kinase from L1210. was determined from the dixon plot

Ki: 230 µM
Compound: O=c1ccn([C@@H]2C=C(CO)[C@@H](O)[C@H]2O)c(=O)[nH]1 [1-(4,5-Dihydroxy-3-hydroxymethyl-cyclopent-2-enyl)-4-hydroxy-1H-pyrimidin-2-one]
